Test results from US6482921B1, “Uridyl peptide antibiotic (UPA) derivatives, their synthesis and use” (Essential Therapeutics, Inc., priority 1999, dated 2002).
Converted amounts (≈) assume the structure as drawn.

Columns and labels:
Assay type in all cases: cell-based
[1] = system: Pseudomonas aeruginosa PAM 1323; assay: MIC broth microdilution, P. aeruginosa PAM 1323 (medium level UPA resistance)
Protocol: Compounds were tested against several panels of bacteria. In a first panel, Table 3, several strains of Pseudomonas aeruginosa, Escherichia coli and Staphylococcus aureus were employed as the target bacteria.
For the bacteria in Table 3, the assay was performed in Mueller-Hinton Broth (MHB) with a final bacterial inoculum of 5×10^5 CFU/ml and a final volume of 100 μl. Control drugs, including imipenem and pacidimycin 4, and the test compounds were prepared at a concentration which was twice the desired final concentration (256 μg/ml). Dilution of the controls and the test compounds was accomplished directly on the test plates by serial 2-fold dilution using a multi-channel pipette. Both a positive and a negative growth control was included in each plate.
The bacterial inocula were prepared as follows. Bacterial strains were grown overnight at 35° C. in MHB. […] The culture was then diluted 1:10 and allowed to grow for an additional one hour at 35° C. in a shaking incubator. The inocula were then prepared by diluting the early log phase (one hour) cultures 1:2000 with fresh MHB. A volume of 50 μl of the inocula was added to each well, resulting in an inoculum of approximately 5×10^5 CFU/ml. The exact inocula were determined by putting 10 μl of 10-fold serial dilution of the bacterial suspensions onto TSA. After overnight incubation at 35° C., colony-forming units were counted manually.
The microtiter plates were incubated for 20 hours at 35° C. and were then read using a microtiterplate reader (Molecular Devices) at 650 nm as well as being visually observed using a microtiterplate reading mirror.

[2] = system: Pseudomonas aeruginosa PAM 1135; assay: MIC broth microdilution, P. aeruginosa PAM 1135 (high level UPA resistance); conditions: P. aeruginosa PAM 1135 UPA1^r
[3] = system: Escherichia Coli MC 4100 AcrAB; assay: MIC broth microdilution, E. coli MC 4100 AcrAB (ΔAcrAB); conditions: E. coli AcrAB
[4] = system: Staphylococcus aureus ATCC 29213; assay: MIC broth microdilution, S. aureus ATCC 29213 (wild type); conditions: S. aureus ATCC 29213
[5] = system: Pseudomonas aeruginosa PAM 1020; assay: MIC broth microdilution, P. aeruginosa PAM 1020 (wild type); conditions: P. aeruginosa PAM 1020
[6] = system: Staphylococcus aureus 8325-4; assay: MIC broth microdilution, S. aureus 8325-4 (wild type); conditions: S. aureus 8325-4
[7] = system: Pasteurella multocida pm002; assay: MIC broth microdilution, P. multocida pm002 (wild type)
[8] = system: Escherichia Coli MC 4100 AcrAB UPA3r; assay: MIC broth microdilution, E. coli MC 4100 AcrAB UPA3r (ΔAcrAB, UPA resistant); conditions: E. coli AcrAB UPA3^r
Escherichia Coli MC 4100 = assay: MIC broth microdilution, E. coli MC 4100 (wild type); conditions: E. coli MC 4100
[9] = system: Pseudomonas aeruginosa PAM 1154; assay: MIC broth microdilution, P. aeruginosa PAM 1154 (OprM::Hg); conditions: P. aeruginosa PAM 1154 OprM::Hg

Row | SMILES | MIC (μg/ml) Broth microdilution [1] [µg/mL] | MIC (μg/ml) Broth microdilution [2] [µg/mL] | MIC (μg/ml) Broth microdilution [3] [µg/mL] | MIC (μg/ml) Broth microdilution [4] [µg/mL] | MIC (μg/ml) Broth microdilution [5] [µg/mL] | MIC (μg/ml) Broth microdilution [6] [µg/mL] | MIC (μg/ml) Broth microdilution [7] [µg/mL] | MIC (μg/ml) Broth microdilution [8] [µg/mL] | MIC (μg/ml) Broth microdilution (Escherichia Coli MC 4100) [µg/mL] | MIC (μg/ml) Broth microdilution [9] [µg/mL]
1 | CC(C(NC(=O)C(Cc1ccc(F)cc1)NC(=O)NC(Cc1ccc(O)cc1)C(=O)O)C(=O)NCC1CC(O)C(n2ccc(=O)[nH]c2=O)O1)N(C)C(=O)C(N)Cc1ccc(F)cc1 [Compound 105, 1-[5′[(2S,3S)-N^2-[N-[[(1S)-1-Carboxy-4-hydroxyphenethyl]carbamoyl]-L-4-fluorophenylalanyl]-N^3-L-4-fluorophenylalanyl-N^3-methyl-2,3-diaminobutyramido]-3′,5′-dideoxy-α-L-arabinofuranosyl]uracil] | 256 (≈ 291 µM) | 256 (≈ 291 µM) | 16 (≈ 18.2 µM) | >512 | 256 (≈ 291 µM) | >512 | 512 (≈ 583 µM) | 512 (≈ 583 µM) | 512 (≈ 583 µM) | 64 (≈ 72.8 µM)
2 | CC(C)[C@H](NC(=O)N[C@@H](Cc1c[nH]c2ccccc12)C(=O)O)C(=O)N[C@H](C(=O)NC[C@H]1C[C@@H](O)[C@H](n2ccc(=O)[nH]c2=O)O1)[C@H](C)N(C)C(=O)[C@H](C)N [Compound 169, 1-[5′-[(2S,3S)-N^3-L-Alanyl-N^2-[N-[[(1S)-1-carboxy-2-indol-3-ylethyl]carbamoyl]-L-valinyl]-N^3-methyl-2,3-diaminobutyramido]-3′,5′-dideoxy-α-L-arabinofuranosyl]uracil] | 64 (≈ 86.3 µM) | >512 | 2 (≈ 2.7 µM) | >512 | 128 (≈ 173 µM) | >512 | 128 (≈ 173 µM) | 32 (≈ 43.1 µM) | 256 (≈ 345 µM) | 128 (≈ 173 µM)
3 | CC(N)C(=O)N(C)C(C)C(NC(=O)C(Cc1cscn1)NC(=O)NC(Cc1ccc(O)cc1)C(=O)O)C(=O)NCC1CC(O)C(n2ccc(=O)[nH]c2=O)O1 [Compound 132, 1-[5′-[(2S,3S)-N^3-L-Alanyl-N^2-[N-[[(1S)-1-carboxy-4-hydroxyphenethyl]carbamoyl]-L-thiazolylalanyl]-N^3-methyl-2,3-diaminobutyramido]-3′,5′-dideoxy-α-L-arabinofuranosyl]uracil] | >512 | >512 | 8 (≈ 10.3 µM) | >512 | 128 (≈ 165 µM) | >512 | >512 | 32 (≈ 41.4 µM) | 256 (≈ 331 µM) | 32 (≈ 41.4 µM)
